Results taken from ChEMBL document CHEMBL5233258, “Recent developments of gallic acid derivatives and their hybrids in medicinal chemistry: A review” (Eur J Med Chem, 2020).
Values after ≈ are worked out from the molar mass of the structure shown.

Assays:
[1] = Antioxidant activity assessed as DPPH radical scavenging activity measured after 30 mins; format: functional
[2] = Antioxidant activity assessed as ABTS radical scavenging activity; format: functional
[3] = Antioxidant activity assessed as DPPH radical scavenging activity; format: functional
[4] = Inhibition of recombinant HIV-1 integrase using 32-P labeled dBY-1 as substrate assessed as disintegration of substrate incubated for 1 hrs; design: species or system Human immunodeficiency virus 1
[5] = Inhibition of recombinant HIV-1 integrase using V1/V2 as substrate assessed as 3'-end processing of the substrate incubated for 1 hrs; design: species or system Human immunodeficiency virus 1
HepG2 = assay: Cytotoxicity against human HepG2 cells by MTT assay; format: functional, cell-based
HCT-116 [6] = assay: Cytotoxicity against human HCT-116 cells by MTT assay; format: functional, cell-based
Bacillus subtilis [7] = assay: Antibacterial activity against Bacillus subtilis ATCC 6633 by Mueller-Hinton broth method; format: functional
Bacillus subtilis [8] = assay: Bactericidal activity against Bacillus subtilis ATCC 6633 by Mueller-Hinton broth method; format: functional
[9] = Antioxidant activity assessed as DPPH radical scavenging activity measured after 30 mins by spectrophotometric analysis; format: functional
MCF7 [10] = assay: Anticancer activity against human MCF7 cells assessed as inhibition of cell growth incubated for 24 hrs by MTT assay; format: functional, cell-based; details: MCF7, 24 h
MCF7 [11] = assay: Cytotoxicity against human MCF7 cells assessed as reduction in cell viability incubated for 72 hrs by MTT assay; format: functional, cell-based; details: MCF7, 72 h
HCT-116 [12] = assay: Cytotoxicity against human HCT-116 cells assessed as reduction in cell viability incubated for 72 hrs by MTT assay; format: functional, cell-based; details: HCT-116, 72 h
[13] = system: Mycobacterium tuberculosis; assay: Antitubercular activity against Mycobacterium tuberculosis H37 Rv ATCC 27294 incubated for 7 days by Alamar blue assay; format: functional; details: H37 Rv ATCC 27294, 168 h, time 7 day
Rattus norvegicus = organism: Rattus norvegicus; assay: Inhibition of tert-butylhydroperoxide induced lipid peroxidation in rat liver microsomes; format: functional, Microsome
Escherichia coli = assay: Antibacterial activity against Escherichia coli assessed as zone of inhibition incubated for 24 hrs by agar diffusion method; format: functional
Pseudomonas aeruginosa = assay: Antibacterial activity against Pseudomonas aeruginosa assessed as zone of inhibition incubated for 24 hrs by agar diffusion method; format: functional
HeLa = assay: Anticancer activity against human HeLa cells assessed as inhibition of cell growth incubated for 24 hrs by MTT assay; format: functional, cell-based

C/C(=N/NC(=O)c1cc(O)c(O)c(O)c1)c1cc(Br)ccc1O
IC50 [1]: 1.14 µg/mL (≈ 2.99 µM)

CSc1nnc(C(=O)c2cc(O)c(O)c(O)c2)o1
IC50 [2]: 24.4 µM | IC50 [3]: 14.6 µM

O=C(/C=C/c1ccc(O)c(O)c1)O[C@@H]1C[C@](O)(C(=O)O)C[C@@H](OC(=O)/C=C/c2ccc(O)c(O)c2)[C@H]1O
IC50 [4]: 5.53 µM

O=C(OC[C@]1(O)C[C@@H](O)[C@@H](O)[C@H](OC(=O)c2cc(O)c(O)c(O)c2)C1)c1cc(O)c(O)c(O)c1
IC50 [5]: 2.79 µM

COc1ccc(C2=NN(C(=O)c3cc(O)c(O)c(O)c3)C(c3ccc(C#N)cc3)C2)cc1OC (configuration not stated)
IC50 (HepG2): 15.2 µg/mL (≈ 33.1 µM) | IC50 (HCT-116 [6]): 31.5 µg/mL (≈ 68.6 µM)

CCCCCCCCCCCC[N+](C)(C)CCOCCO
MIC (Bacillus subtilis [7]): 2400 µM | MBC (Bacillus subtilis [8]): 2400 µM | IC50 [9]: 4820 µM

CC/C(=C(\c1ccccc1)c1ccc(OCCN(C)C)cc1)c1ccccc1 [TAMOXIFEN]
IC50 (MCF7 [10]): 9 µM

COc1cc(/C=C/C(=O)CC(=O)/C=C/c2ccc(O)c(OC)c2)ccc1O [CURCUMIN]
IC50 (MCF7 [11]): 13.7 µM | IC50 (HCT-116 [12]): 34.7 µM

COc1ccc(/C=C\c2cc(OC)c(OC)c(OC)c2)cc1O [COMBRETASTATIN A4]
IC50 (MCF7 [10]): 0.01 µM

COc1ccc(C2CC(c3ccc(OC)c(OC)c3)=NN2C(=O)c2cc(O)c(O)c(O)c2)cc1 (configuration not stated)
IC50 (HepG2): 8.4 µg/mL (≈ 18.1 µM) | IC50 (HCT-116 [6]): 18.6 µg/mL (≈ 40 µM)

O=C(NN1C(=O)CSC1c1ccccc1Cl)c1cc(O)c(O)c(O)c1 (configuration not stated)
MIC [13]: 0.79 µg/mL (≈ 2.07 µM)

Cc1c(C)c2c(c(C)c1O)CCC(C)(C(=O)O)O2 (configuration not stated) [TROLOX]
IC50 [3]: 30.6 µM

CCCCCCCCCCCC[N+](C)(C)CC(=O)O
MIC (Bacillus subtilis [7]): 1100 µM | MBC (Bacillus subtilis [8]): 1100 µM | IC50 [9]: 4690 µM

O=c1c(O[C@@H]2O[C@H](CO)[C@@H](O)[C@H](O)[C@H]2O)c(-c2ccc(O)c(O)c2)oc2cc(O)cc(O)c12 [ISOQUERCETIN]
IC50 (Rattus norvegicus): 972 µM

O=C(N/N=C/c1c[nH]c2ccc(Cl)cc12)c1cc(O)c(O)c(O)c1
IC50 (MCF7 [11]): 6.7 µM | IC50 (HCT-116 [12]): 19.2 µM | IC50 [9]: 189 µM

CC(=O)O[C@H]1C(=O)[C@@]2(C)[C@H]([C@H](OC(=O)c3ccccc3)[C@]3(O)C[C@H](OC(=O)[C@H](O)[C@@H](NC(=O)c4ccccc4)c4ccccc4)C(C)=C1C3(C)C)[C@]1(OC(C)=O)CO[C@@H]1C[C@@H]2O [PACLITAXEL]
IC50 (HepG2): 0.66 µg/mL (≈ 0.773 µM) | IC50 (HCT-116 [6]): 0.915 µg/mL (≈ 1.07 µM) | IC50 (MCF7 [10]): 0.0025 µM

Cc1c(C)c2c(c(C)c1O)CC[C@@](C)(CCC[C@H](C)CCC[C@H](C)CCCC(C)C)O2 [ALPHA-TOCOPHEROL]
IC50 [9]: 911 µM

C/C(=N/NC(=O)c1cc(O)c(O)c(O)c1)c1ccccn1
IC50 [1]: 1.14 µg/mL (≈ 3.97 µM)

O=C(O[C@@H]1C[C@H](O)C[C@@H](O)[C@H]1O)c1cc(O)c(O)c(O)c1
IC50 [5]: 0.71 µM

COc1cc(C(=O)NN=Cc2nc(-c3ccccc3)c[nH]2)cc(OC)c1OC
inhibition zone (IZ) (Escherichia coli): 17 mm | inhibition zone (IZ) (Pseudomonas aeruginosa): 17 mm

O=C(O[C@@H]1C[C@@H](O)[C@@H](O)[C@H](OC(=O)c2cc(O)c(O)c(O)c2)C1)c1cc(O)c(O)c(O)c1
IC50 [5]: 0.33 µM

Cc1nnc(C(=O)NC(C)(C)c2nc(C(=O)NCc3ccc(F)cc3)c(O)c(=O)n2C)o1 [RALTEGRAVIR]
IC50 [4]: 35.2 µM

N#Cc1c(NC(=O)c2cc(O)c(O)c(O)c2)sc2c1CCC2
IC50 (HeLa): 59.4 µg/mL (≈ 188 µM)

O=C(OC[C@H]1O[C@@H](Oc2c(-c3ccc(O)c(O)c3)oc3cc(O)cc(O)c3c2=O)[C@H](O)[C@@H](O)[C@@H]1O)c1cc(O)c(O)c(O)c1
IC50 (Rattus norvegicus): 6.64 µM
